Drawing on patent US8574563B2 (Bristol-Myers Squibb Company, priority 2006, dated 2013), this text covers EC50 for 17 compounds.

Each structure is given as a SMILES string. pEC50: −log10 of the molar value.

This assay concerns HCV 1b-377-neo replicon cells. In words: HCV replicon assay, HCV 1b-377-neo replicon cells (1b FRET). It is filed as cell-based, Hepatitis C virus genotype 1b. Conditions: Hepatitis C virus, HCV 1b-377-neo replicon cells; HCV 1b genotype; read-out: EC50 range against HCV 1b (Table 2, Range). Put shortly: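 Compounds were tested in genotype 1b subgenomic replicon cells carrying a neomycin marker, alongside a matched replicon line with an NS5A Y2065H substitution that confers resistance to a reference NS5A inhibitor.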
A word on the pEC50: it is the EC50 on a negative log10 scale, so that one unit is a factor of ten. As to `COC(=O)N[C@@H](Cc1cn(Cc2ccccc2)cn1)C(=O)N1CCC[C@H]1c1ncc(-c2ccc(-c3ccc(-c4cnc([C@@H]5CCCN5C(=O)[C@@H](NC(=O)OC)[C@@H](C)OC)[nH]4)cc3)cc2)[nH]1` [cj-75, methyl ((1S)-1-((1-benzyl-1H-imidazol-4-yl)methyl)-2-((2S)-2-(5-(4′-(2-((2S)-1-((2S,3R)-3-methoxy-2-((methoxycarbonyl)amino)butanoyl)-2-pyrrolidinyl)-1H-imidazol-5-yl)-4-biphenylyl)-1H-irnidazol-2-yl)-1-pyrrolidinyl)-2-oxoethyl)carbamate], the pEC50 is 9.00 to 12.00.

Regarding `COC(=O)N[C@@H](Cc1cn(Cc2ccccc2)cn1)C(=O)N1CCC[C@H]1c1ncc(-c2ccc(-c3ccc(-c4cnc([C@@H]5CCCN5C(=O)[C@@H](NC(=O)OC)C(C)C)[nH]4)cc3)cc2)[nH]1` [cj-76, methyl ((1S)-1-(((2S)-2-(5-(4′-(2-((2S)-1-((2S)-3-(1-benzyl-1H-imidazol-4-yl)-2-((methoxycarbonyl)amino)propanoyl)-2-pyrrolidinyl)-1H-imidazol-5-yl)-4-biphenylyl)-1H-imidazol-2-yl)-1-pyrrolidinyl)carbonyl)-2-methylpropyl)carbamate], the pEC50 was 9.00 to 12.00.

Turning to `COC(=O)N[C@@H](C)C(=O)N1CCC[C@H]1c1ncc(-c2ccc(-c3ccc(-c4cnc([C@@H]5CCCN5C(=O)[C@H](Cc5cn(Cc6ccccc6)cn5)NC(=O)OC)[nH]4)cc3)cc2)[nH]1` [cj-77, methyl ((1S)-2-((2S)-2-(5-(4′-(2-((2S)-1-((2S)-3-(1-benzyl-1H-imidazol-4-yl)-2-((methoxycarbonyl)amino)propanoyl)-2-pyrrolidinyl)-1H-imidazol-5-yl)-4-biphenylyl)-1H-imidazol-2-yl)-1-pyrrolidinyl)-1-methyl-2-oxoethyl)carbamate], the pEC50 was 9.00 to 12.00.

Turning to `COC(=O)N[C@@H](Cc1cscn1)C(=O)N1CCC[C@H]1c1ncc(-c2ccc(-c3ccc(-c4cnc([C@@H]5CCCN5C(=O)[C@@H](NC(=O)OC)[C@@H](C)OC)[nH]4)cc3)cc2)[nH]1` [cj-78, methyl ((1S)-2-((2S)-2-(5-(4′-(2-((2S)-1-((2S,3R)-3-methoxy-2-((methoxycarbonyl)amino)butanoyl)-2-pyrrolidinyl)-1H-imidazol-5-yl)-4-biphenylyl)-1H-imidazol-2-yl)-1-pyrrolidinyl)-2-oxo-1-(1,3-thiazol-4-ylmethyl)ethyl)carbamate], the pEC50 is 9.00 to 12.00.

For `COC(=O)N[C@@H](Cc1cscn1)C(=O)N1CCC[C@H]1c1ncc(-c2ccc(-c3ccc(-c4cnc([C@@H]5CCCN5C(=O)[C@@H](NC(=O)OC)C(C)C)[nH]4)cc3)cc2)[nH]1` [cj-79, methyl ((1S)-1-(((2S)-2-(5-(4′-(2-((2S)-1-((2S)-2-((methoxycarbonyl)amino)-3-(1,3-thiazol-4-yl)propanoyl)-2-pyrrolidinyl)-1H-imidazol-5-yl)-4-biphenylyl)-1H-imidazol-2-yl)-1-pyrrolidinyl)carbonyl)-2-methylpropyl)carbamate], the pEC50 was 9.00 to 12.00.

As to `CCN(CC)[C@@H](C(=O)N1CCC[C@H]1c1ncc(-c2ccc(-c3ccc(-c4cnc([C@@H]5CCCN5C(=O)[C@H](Cc5cscn5)NC(=O)OC)[nH]4)cc3)cc2)[nH]1)c1ccccc1` [cj-80, methyl ((1S)-2-((2S)-2-(5-(4′-(2-((2S)-1-((2R)-2-(diethylamino)-2-phenylacetyl)-2-pyrrolidinyl)-1H-imidazol-5-yl)-4-biphenylyl)-1H-imidazol-2-yl)-1-pyrrolidinyl)-2-oxo-1-(1,3-thiazol-4-ylmethyl)ethyl)carbamate], the pEC50 was 9.00 to 12.00.

In the case of `COC(=O)N[C@@H](C)C(=O)N1CCC[C@H]1c1ncc(-c2ccc(-c3ccc(-c4cnc([C@@H]5CCCN5C(=O)[C@H](Cc5cscn5)NC(=O)OC)[nH]4)cc3)cc2)[nH]1` [cj-81, methyl ((1S)-2-((2S)-2-(5-(4′-(2-((2S)-1-(N-(methoxycarbonyl)-L-alanyl)-2-pyrrolidinyl)-1H-imidazol-5-yl)-4-biphenylyl)-1H-imidazol-2-yl)-1-pyrrolidinyl)-2-oxo-1-(1,3-thiazol-4-ylmethyl)ethyl)carbamate], the negative logarithm of the EC50 (pEC50) was 9.00 to 12.00.

For `COC(=O)N[C@@H](Cc1cccnc1)C(=O)N1CCC[C@H]1c1ncc(-c2ccc(-c3ccc(-c4cnc([C@@H]5CCCN5C(=O)[C@@H](NC(=O)OC)[C@@H](C)OC)[nH]4)cc3)cc2)[nH]1` [cj-82, methyl ((1S)-2-((2S)-2-(5-(4′-(2-((2S)-1-((2S,3R)-3-methoxy-2-((methoxycarbonyl)amino)butanoyl)-2-pyrrolidinyl)-1H-imidazol-5-yl)-4-biphenylyl)-1H-imidazol-2-yl)-1-pyrrolidinyl)-2-oxo-1-(3-pyridinylmethyl)ethyl)carbamate], the pEC50 is 9.00 to 12.00.

Regarding `COC(=O)N[C@@H](Cc1cccnc1)C(=O)N1CCC[C@H]1c1ncc(-c2ccc(-c3ccc(-c4cnc([C@@H]5CCCN5C(=O)[C@@H](NC(=O)OC)C(C)C)[nH]4)cc3)cc2)[nH]1` [cj-83, methyl ((1S)-2-((2S)-2-(5-(4′-(2-((2S)-1-((2S)-2-((methoxycarbonyl)amino)-3-methylbutanoyl)-2-pyrrolidinyl)-1H-imidazol-5-yl)-4-biphenylyl)-1H-imidazol-2-yl)-1-pyrrolidinyl)-2-oxo-1-(3-pyridinylmethyl)ethyl)carbamate], the pEC50 is 9.00 to 12.00.

`CCN(CC)[C@@H](C(=O)N1CCC[C@H]1c1ncc(-c2ccc(-c3ccc(-c4cnc([C@@H]5CCCN5C(=O)[C@H](Cc5cccnc5)NC(=O)OC)[nH]4)cc3)cc2)[nH]1)c1ccccc1` [cj-84, methyl ((1S)-2-((2S)-2-(5-(4′-(2-((2S)-1-((2R)-2-(diethylamino)-2-phenylacetyl)-2-pyrrolidinyl)-1H-imidazol-5-yl)-4-biphenylyl)-1H-imidazol-2-yl)-1-pyrrolidinyl)-2-oxo-1-(3-pyridinylmethyl)ethyl)carbamate]: the negative-log EC50 (pEC50) was 9.00 to 12.00.

For `COC(=O)N[C@@H](C)C(=O)N1CCC[C@H]1c1ncc(-c2ccc(-c3ccc(-c4cnc([C@@H]5CCCN5C(=O)[C@H](Cc5cccnc5)NC(=O)OC)[nH]4)cc3)cc2)[nH]1` [cj-85, methyl ((1S)-2-((2S)-2-(5-(4′-(2-((2S)-1-(N-(methoxycarbonyl)-L-alanyl)-2-pyrrolidinyl)-1H-imidazol-5-yl)-4-biphenylyl)-1H-imidazol-2-yl)-1-pyrrolidinyl)-2-oxo-1-(3-pyridinylmethyl)ethyl)carbamate], the pEC50 was 9.00 to 12.00.

`COC(=O)N[C@@H]1CC[C@H](C(=O)N2CCC[C@H]2c2ncc(-c3ccc(-c4ccc(-c5cnc([C@@H]6CCCN6C(=O)[C@@H](NC(=O)OC)[C@@H](C)OC)[nH]5)cc4)cc3)[nH]2)C1` [cj-86, methyl ((1R,3S)-3-(((2S)-2-(5-(4′-(2-((2S)-1-((2S)-3-methoxy-2-((methoxycarbonyl)amino)butanoyl)-2-pyrrolidinyl)-1H-imidazol-5-yl)-4-biphenylyl)-1H-imidazol-2-yl)-1-pyrrolidinyl)carbonyl)cyclopentyl)carbamate]: the pEC50 is 9.00 to 12.00.

Regarding `COC(=O)N[C@@H](Cc1ccncc1)C(=O)N1CCC[C@H]1c1ncc(-c2ccc(-c3ccc(-c4cnc([C@@H]5CCCN5C(=O)[C@@H](NC(=O)OC)[C@@H](C)OC)[nH]4)cc3)cc2)[nH]1` [cj-87, methyl ((1S)-2-((2S)-2-(5-(4′-(2-((2S)-1-((2S,3R)-3-methoxy-2-((methoxycarbonyl)amino)butanoyl)-2-pyrrolidinyl)-1H-imidazol-5-yl)-4-biphenylyl)-1H-imidazol-2-yl)-1-pyrrolidinyl)-2-oxo-1-(4-pyridinylmethyl)ethyl)carbamate], the negative-log EC50 (pEC50) was 9.00 to 12.00.

Consider `COC(=O)N[C@@H](Cc1ccncc1)C(=O)N1CCC[C@H]1c1ncc(-c2ccc(-c3ccc(-c4cnc([C@@H]5CCCN5C(=O)[C@@H](NC(=O)OC)C(C)C)[nH]4)cc3)cc2)[nH]1` [cj-88, methyl ((1S)-2-((2S)-2-(5-(4′-(2-((2S)-1-((2S)-2-((methoxycarbonyl)amino)-3-methylbutanoyl)-2-pyrrolidinyl)-1H-imidazol-5-yl)-4-biphenylyl)-1H-imidazol-2-yl)-1-pyrrolidinyl)-2-oxo-1-(4-pyridinylmethyl)ethyl)carbamate], for which the pEC50 was 9.00 to 12.00.

In the case of `CCN(CC)[C@@H](C(=O)N1CCC[C@H]1c1ncc(-c2ccc(-c3ccc(-c4cnc([C@@H]5CCCN5C(=O)[C@H](Cc5ccncc5)NC(=O)OC)[nH]4)cc3)cc2)[nH]1)c1ccccc1` [cj-89, methyl ((1S)-2-((2S)-2-(5-(4′-(2-((2S)-1-((2R)-2-(diethylamino)-2-phenylacetyl)-2-pyrrolidinyl)-1H-imidazol-5-yl)-4-biphenylyl)-1H-imidazol-2-yl)-1-pyrrolidinyl)-2-oxo-1-(4-pyridinylmethyl)ethyl)carbamate], the pEC50 was 9.00 to 12.00.

On to `COC(=O)N[C@@H](C)C(=O)N1CCC[C@H]1c1ncc(-c2ccc(-c3ccc(-c4cnc([C@@H]5CCCN5C(=O)[C@H](Cc5ccncc5)NC(=O)OC)[nH]4)cc3)cc2)[nH]1` [cj-90, methyl ((1S)-2-((2S)-2-(5-(4′-(2-((2S)-1-(N-(methoxycarbonyl)-L-alanyl)-2-pyrrolidinyl)-1H-imidazol-5-yl)-4-biphenylyl)-1H-imidazol-2-yl)-1-pyrrolidinyl)-2-oxo-1-(4-pyridinylmethyl)ethyl)carbamate], for which the pEC50 is 9.00 to 12.00.

Consider `COC(=O)N[C@@H](Cc1ccc(OP(=O)(O)OC)cc1)C(=O)N1CCC[C@H]1c1ncc(-c2ccc(-c3ccc(-c4cnc([C@@H]5CCCN5C(=O)[C@@H](NC(=O)OC)C(C)C)[nH]4)cc3)cc2)[nH]1` [cj-91, methyl ((1S)-1-(((2S)-2-(5-(4′-(2-((2S)-1-(O-(hydroxy(methoxy)phosphoryl)-N-(methoxycarbonyl)-L-tyrosyl)-2-pyrrolidinyl)-1H-imidazol-5-yl)-4-biphenylyl)-1H-imidazol-2-yl)-1-pyrrolidinyl)carbonyl)-2-methylpropyl)carbamate], for which the pEC50 was 9.00 to 12.00.
